Where a name gives a salt, the structure may show the parent alone.

The compound `Cl.N=C(N)Nc1nc(-c2ccccc2)c2c(O)cccc2n1` registered a melting point of 310 °C.
Under `CN=C(NC)Nc1nc(-c2ccccc2)c2cc(Cl)ccc2n1.Cl` stands 264 to 267 °C; under `CS(=O)(=O)c1ccc2nc(NC(=N)N)nc(-c3ccccc3)c2c1` (as salt: HCl) [Example 6, N-(6-methanesulfonyl-4-phenylquinazolin-2-yl)guanidine], 180 to 185 °C; under `C[S+]([O-])c1ccc2nc(NC(=N)N)nc(-c3ccccc3)c2c1` (stereo not shown) [Example 5, N-(6-methanesulfinyl-4-phenylquinazolin-2-yl)guanidine], 175 to 180 °C.

The values are drawn from patent US20040039001A1, “2-guanidino-4-aryl-quinazoline” (priority 2000, published 2004).
